From patent US20250368633A1, “AZEPINE FUSED RING COMPOUND AS RIPK1 INHIBITOR AND USE THEREOF” (ARTIVILA BIOPHARMA, priority 2022, published 2025)

What was measured:
[1] = test system: U937 cells; experiment: EC50 of necroptosis inhibition in U937 cells (TSZ-induced, CellTiter-Glo); type: cell-based; settings: Homo sapiens, U-937; TSZ (hTNF-α, SM-164, Z-VAD-FMK) 20 hours; 10 concentration points; read-out: EC50 intervals of necroptosis inhibition in U937 cells
Method in brief: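 Luminescent ATP readout (CellTiter-Glo) after 20 h gave viability of TSZ-challenged U937 cells; compounds were added 15 min ahead of TNF-α/SM-164/Z-VAD-FMK. EC50 derived by variable-slope nonlinear regression of inhibition relative to no-TSZ and TSZ-alone controls.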

[2] = molecular target: T1, RIPK1 kinase (Homo sapiens, UniProt Q13546); experiment: In vitro RIPK1 kinase activity IC50 assay (ADP-Glo); type: biochemical; settings: ATP 10 μM; MBP substrate 100 μg/mL; 8 concentration points; read-out: IC50 range of compounds for RIPK1 kinase activity
T1 construct: purchased Promega VA7593
T1 sequence (Q13546 1-671): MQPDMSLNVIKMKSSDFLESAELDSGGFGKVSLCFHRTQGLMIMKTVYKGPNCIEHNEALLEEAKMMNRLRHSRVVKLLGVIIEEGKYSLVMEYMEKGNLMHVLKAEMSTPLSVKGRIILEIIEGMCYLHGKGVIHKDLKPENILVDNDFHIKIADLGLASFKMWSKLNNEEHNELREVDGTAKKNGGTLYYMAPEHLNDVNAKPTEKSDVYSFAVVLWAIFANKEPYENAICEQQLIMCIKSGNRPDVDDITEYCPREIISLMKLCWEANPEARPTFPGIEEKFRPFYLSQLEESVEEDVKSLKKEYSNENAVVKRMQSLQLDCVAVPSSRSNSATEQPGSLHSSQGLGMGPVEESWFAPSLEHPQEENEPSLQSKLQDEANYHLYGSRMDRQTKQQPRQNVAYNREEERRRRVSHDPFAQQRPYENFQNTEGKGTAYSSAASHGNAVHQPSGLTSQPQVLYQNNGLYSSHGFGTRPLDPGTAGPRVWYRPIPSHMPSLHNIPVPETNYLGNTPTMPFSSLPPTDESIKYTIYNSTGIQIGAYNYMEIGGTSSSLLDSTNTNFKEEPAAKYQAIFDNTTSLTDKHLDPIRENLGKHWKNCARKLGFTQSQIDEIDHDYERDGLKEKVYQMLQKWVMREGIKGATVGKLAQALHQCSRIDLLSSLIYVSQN
Method in brief: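 Human RIPK1 preincubated 15 min at room temperature with compound (8-point 1:5 dilution series, 1% DMSO in kinase buffer D). Reaction then ran 1 h with 10 μM ATP and 100 μg/mL MBP substrate; ADP measured by ADP-Glo luminescence, IC50 from four-parameter nonlinear fit.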

Compound | EC50 [1] [nM] | IC50 [2] [nM]
COC(=O)C1(C#Cc2ccc3c(c2)N(C)C(=O)[C@@H](NC(=O)C(=O)NCCc2ccccc2)CO3)CC1 [Example 96, methyl (S)-1-((5-methyl-4-oxo-3-(2-oxo-2-(phenethylamino)acetamido)-2,3,4,5-tetrahydrobenzo[b][1,4]oxazepin-7-yl)ethynyl)cyclopropane-1-carboxylate] | < 100 | < 100
CN1C(=O)[C@@H](NC(=O)C(=O)NCCc2cccs2)COc2ccccc21 [Example 97, (S)—N^1-(5-methyl-4-oxo-2,3,4,5-tetrahydrobenzo[b][1,4]oxazepin-3-yl)-N^2-(2-(thiophen-2-yl)ethyl)oxalamide] | 100 to 500 | < 100
CN1C(=O)[C@@H](NC(=O)C(=O)NCCc2ccsc2)COc2ccccc21 [Example 98, (S)—N-(5-methyl-4-oxo-2,3,4,5-tetrahydrobenzo[b][1,4]oxazepin-3-yl)-N^2-(2-(thiophen-3-yl)ethyl)oxalamide] | 100 to 500 | < 100
